Data: the supplement of paper PMC10307832

Assays:
Assay in all cases: relative viability (nuclei count vs DMSO), 5 days (fraction); higher = more cells survive
Afatinib + Crizotinib = compound: CN(C)C/C=C/C(=O)Nc1cc2c(Nc3ccc(F)c(Cl)c3)ncnc2cc1O[C@H]1CCOC1 [Afatinib] + C[C@@H](Oc1cc(-c2cnn(C3CCNCC3)c2)cnc1N)c1c(Cl)ccc(F)c1Cl [Crizotinib] (partner 1 µM)
Summary of the method: (§1)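 Relative viability divides the nuclei count in treated wells by that in vehicle wells. Lung cancer cell lines were seeded in 1536-well plates, dosed by pin tool the next day, and fixed and stained after 5 days in one step with final 0.05% Triton X-100, 1% formaldehyde and 1 ug/ml Hoechst. Dosing was a single drug or a fixed anchor-drug dose plus five library-drug doses (not always all listed) in √10 steps, and values are medians of duplicate plates imaged at 4×.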

Afatinib + Phenformin = compound: CN(C)C/C=C/C(=O)Nc1cc2c(Nc3ccc(F)c(Cl)c3)ncnc2cc1O[C@H]1CCOC1 [Afatinib] + N=C(N)NC(=N)NCCc1ccccc1 [Phenformin] (partner 250 µM)
Summary of the method: as §1

Afatinib + Navitoclax = compound: CN(C)C/C=C/C(=O)Nc1cc2c(Nc3ccc(F)c(Cl)c3)ncnc2cc1O[C@H]1CCOC1 [Afatinib] + CC1(C)CCC(c2ccc(Cl)cc2)=C(CN2CCN(c3ccc(C(=O)NS(=O)(=O)c4ccc(N[C@H](CCN5CCOCC5)CSc5ccccc5)c(S(=O)(=O)C(F)(F)F)c4)cc3)CC2)C1 [Navitoclax] (partner 0.5 µM)
Summary of the method: as §1

Afatinib + Decitabine = compound: CN(C)C/C=C/C(=O)Nc1cc2c(Nc3ccc(F)c(Cl)c3)ncnc2cc1O[C@H]1CCOC1 [Afatinib] + Nc1ncn([C@H]2C[C@H](O)[C@@H](CO)O2)c(=O)n1 [Decitabine] (partner 2 µM)
Summary of the method: as §1

| Cell Line | relative viability (Afatinib + Crizotinib; first compound 0.005 µM) | relative viability (Afatinib + Crizotinib; first compound 0.01581 µM) | relative viability (Afatinib + Crizotinib; first compound 0.05 µM) | relative viability (Afatinib + Crizotinib; first compound 0.1581 µM) | relative viability (Afatinib + Crizotinib; first compound 0.5 µM) | relative viability (Afatinib + Phenformin; first compound 0.005 µM) | relative viability (Afatinib + Phenformin; first compound 0.01581 µM) | relative viability (Afatinib + Phenformin; first compound 0.05 µM) | relative viability (Afatinib + Phenformin; first compound 0.1581 µM) | relative viability (Afatinib + Phenformin; first compound 0.5 µM) | relative viability (Afatinib + Navitoclax; first compound 0.005 µM) | relative viability (Afatinib + Navitoclax; first compound 0.01581 µM) | relative viability (Afatinib + Navitoclax; first compound 0.05 µM) | relative viability (Afatinib + Navitoclax; first compound 0.1581 µM) | relative viability (Afatinib + Navitoclax; first compound 0.5 µM) | relative viability (Afatinib + Decitabine; first compound 0.005 µM) | relative viability (Afatinib + Decitabine; first compound 0.01581 µM) | relative viability (Afatinib + Decitabine; first compound 0.05 µM) | relative viability (Afatinib + Decitabine; first compound 0.1581 µM) | relative viability (Afatinib + Decitabine; first compound 0.5 µM) |
| --- | --- | --- | --- | --- | --- | --- | --- | --- | --- | --- | --- | --- | --- | --- | --- | --- | --- | --- | --- | --- |
| NCI-H2085 | 0.925 | 0.657 | 0.763 | 0.66 | 0.778 | 0.614 | 0.629 | 0.606 | 0.509 | 0.542 | 0.985 | 1.03 | 0.994 | 0.808 | 0.936 | 0.577 | 0.522 | 0.519 | 0.517 | 0.515 |
| NCI-H2087 | 0.985 | 0.933 | 0.93 | 0.845 | 1.02 | 0.454 | 0.475 | 0.446 | 0.446 | 0.373 | 0.996 | 0.957 | 1.11 | 0.837 | 0.925 | 0.336 | 0.227 | 0.262 | 0.209 | 0.25 |
| NCI-H2126 | 1.09 | 0.989 | 1.02 | 0.884 | 0.79 | 0.584 | 0.509 | 0.485 | 0.434 | 0.483 | 0.836 | 0.854 | 0.829 | 0.441 | 0.411 | 0.565 | 0.519 | 0.595 | 0.502 | 0.425 |
| NCI-H2170 | 1.07 | 0.822 | 0.534 | 0.25 | 0.286 | 0.368 | 0.383 | 0.335 | 0.216 | 0.208 | 0.481 | 0.454 | 0.284 | 0.187 | 0.2 | 0.459 | 0.469 | 0.405 | 0.176 | 0.2 |
| NCI-H2347 | 0.828 | 0.937 | 0.657 | 0.607 | 0.724 | 0.357 | 0.456 | 0.31 | 0.381 | 0.415 | 0.932 | 0.79 | 0.873 | 0.903 | 0.804 | 0.602 | 0.654 | 0.626 | 0.592 | 0.592 |
| NCI-H2405 | 0.753 | 0.86 | 0.835 | 0.811 | 0.819 | 0.339 | 0.413 | 0.435 | 0.363 | 0.392 | 0.857 | 0.879 | 0.912 | 0.715 | 1.07 | 0.716 | 0.764 | 0.703 | 0.642 | 0.656 |
| NCI-H3122 | 0.257 | 0.212 | 0.208 | 0.209 | 0.299 | 0.385 | 0.382 | 0.415 | 0.363 | 0.423 | 1.02 | 0.976 | 1.05 | 0.91 | 1.03 | 0.38 | 0.439 | 0.424 | 0.433 | 0.418 |
| PC-3 [JPC-3] | 0.51 | 0.453 | 0.447 | 0.4 | 0.355 | 0.338 | 0.338 | 0.258 | 0.285 | 0.306 | 0.398 | 0.345 | 0.341 | 0.324 | 0.32 | 0.564 | 0.52 | 0.553 | 0.449 | 0.492 |
| PC-14 | 0.419 | 0.275 | 0.257 | 0.239 | 0.242 | 0.173 | 0.123 | 0.175 | 0.161 | 0.171 | 0.377 | 0.334 | 0.372 | 0.334 | 0.349 | 0.14 | 0.17 | 0.137 | 0.171 | 0.218 |
| RERF-LC-KJ | 0.921 | 0.842 | 0.801 | 0.731 | 0.705 | 0.423 | 0.393 | 0.342 | 0.315 | 0.335 | 0.786 | 0.766 | 0.874 |  | 0.751 | 0.646 | 0.613 | 0.673 | 0.501 | 0.635 |
| SK-LU-1 | 1.07 | 0.731 | 0.879 | 1.12 | 0.842 | 0.634 | 0.536 | 0.605 | 0.511 | 0.47 | 0.98 | 0.719 | 0.757 | 0.861 | 0.842 | 0.641 | 0.674 | 0.661 | 0.621 | 0.619 |
| SK-MES-1 | 0.977 | 0.879 | 0.626 | 0.485 | 0.466 | 0.547 | 0.64 | 0.389 | 0.332 | 0.369 | 1.16 | 0.965 | 0.655 | 0.731 | 0.556 | 0.27 | 0.322 | 0.309 | 0.312 | 0.316 |
| SW 1573 | 0.963 | 0.885 | 1.01 | 0.683 | 0.75 | 0.387 | 0.376 | 0.353 | 0.299 | 0.393 | 0.878 | 1.08 | 1.13 | 0.819 | 0.943 | 0.434 | 0.422 | 0.542 | 0.497 | 0.528 |
| UMC-11 | 0.679 | 0.558 | 0.557 | 0.629 | 0.71 | 0.358 | 0.33 | 0.324 | 0.314 | 0.303 | 0.361 | 0.305 | 0.294 | 0.296 | 0.293 | 0.664 | 0.602 | 0.584 | 0.554 | 0.63 |
